Results as given in US20260124213A1, “STAPHYLOCOCCUS AUREUS PBP4 INHIBITORS AND METHOD OF USE” (UNIVERSITY OF ROCHESTER, priority 2022, published 2026).
“And” between values parts separate entries of the source, which are not always exact repeats. Equal entries are not always repeated. Where two headings read alike, the source gives them in different places.

Tests used:
[1] = target: recombinant B. subtilis PBP4 (Bacillus subtilis, UniProt P40750); experiment: BOCILLIN FL fluorescence polarization binding competition
Procedure: PBP4 BOCILLIN™ FL Binding Competition Assays. The ability of putative PBP4 inhibitors to impact the active site of recombinant PBP4 was assessed using two previously established BOCILLIN™-FL Penicillin (Penicillin V conjugated to BODIPY fluorescent dye) binding assays. First, fluorescence polarization assays were performed as previously described. Briefly, the indicated amount of the putative PBP4 inhibitor or control antibiotic was incubated with 1 μM recombinant B. subtilis PBP4 or S. aureus PBP2a in potassium phosphate buffer (40 mM K2HPO4 and 10 mM KH2PO4) for 1 hour in black 96-well microtiter plates (Corning Life Sciences®, Corning, NY). Following incubation, 1 μM (final concentration) BOCILLIN™ FL penicillin was added, and the mixture was incubated for 30 minutes. BOCILLIN™ FL fluorescence polarization was measured at (495nm excitation and 545nm emission) in a SpectraMax® M5 multimode plate reader (Molecular Devices®, San Jose, CA). All assays were repeated at least 8 times, averaged, and values falling outside of 2 standard deviations were considered outliers. Resulting data was plotted as percentage BOCILLIN™ FL binding inhibition=(T/U)×100; T=FL polarization of ((PBP4+BOCILLIN™ FL)−(PBP4+BOCILLIN™ FL+inhibitor compound)), U=FL polarization of ((PBP4+BOCILLIN™ FL)−(BOCILLIN™ FL)). Second, gel electrophoresis and fluorescence detection were used to measure BOCILLIN™ FL labeling of PBP4 treated with the known PBP4 inhibitor cefoxitin (positive control), kanamycin (negative control) or 9314848 (test compound). Briefly, 1 μM of recombinant PBP4 was mixed with 0, 50, 500, 2000, or 5000 μM 9314848 or control antibiotic in 50 mM phosphate buffer (pH 7.4) and incubated at 37° C. for 30 minutes. Next 40 μM of BOCILLIN™ FL was added to the reaction mixture and incubated for an additional 30 minutes at 37° C. Reactions were stopped by adding 5×SDS-PAGE gel loading dye, heated at 100° C. for 3 minutes and separated by electrophoresis in 12% SDS-PAGE (2 h, 120 Volts). BOCILLIN™ FL labeled PBP4 was imaged at λ=365 nm using a BioRad© Gel Doc EZ™ Imaging system and the gel was then subsequently stained with Bio-safe Coomassie Brilliant Blue stain (BioRad©, Hercules, CA, USA) to measure the amount of protein present in each reaction condition and analyzed using NIH-ImageJ software. The percent BOCILLIN™ FL binding was calculated by first normalizing the protein present in each reaction condition to that of untreated control and subsequently applying each reaction's protein normalization factor to each reaction's fluorescent signal. The percentage BOCILLIN™ FL binding inhibition was then calculated as the normalized band intensity of antibiotic/compound treated sample as compared to control sample (PBP4+BOCILLIN™ FL in the absence of compound).
To more directly evaluate whether 9314848 is likely to affect PBP4 function, the compound's ability to bind recombinant PBP4 was measured using BOCILLIN™ FL fluorescence polarization displacement assays. The premise for the assay is that the fluorescence polarization of the fluorescently labeled β-lactam, penicillin V (BOCILLIN™ FL), will increase upon binding to its cognate target (i.e., PBP4). Further, compounds that bind PBP4 and inhibit its function would impede BOCILLIN™ FL binding thereby allowing assessment of the protein binding affinity of 9314848 using a simple fluorescence reduction assay.

recombinant PBP4 = experiment: BOCILLIN FL labeling of PBP4, gel electrophoresis and fluorescence detection; type: binding; details: kanamycin 2000 μM or 5000 μM
Procedure: PBP4 BOCILLIN™ FL Binding Competition Assays. The ability of putative PBP4 inhibitors to impact the active site of recombinant PBP4 was assessed using two previously established BOCILLIN™-FL Penicillin (Penicillin V conjugated to BODIPY fluorescent dye) binding assays. First, fluorescence polarization assays were performed as previously described. Briefly, the indicated amount of the putative PBP4 inhibitor or control antibiotic was incubated with 1 μM recombinant B. subtilis PBP4 or S. aureus PBP2a in potassium phosphate buffer (40 mM K2HPO4 and 10 mM KH2PO4) for 1 hour in black 96-well microtiter plates (Corning Life Sciences®, Corning, NY). […] BOCILLIN™ FL fluorescence polarization was measured at (495nm excitation and 545nm emission) in a SpectraMax® M5 multimode plate reader (Molecular Devices®, San Jose, CA). […] Second, gel electrophoresis and fluorescence detection were used to measure BOCILLIN™ FL labeling of PBP4 treated with the known PBP4 inhibitor cefoxitin (positive control), kanamycin (negative control) or 9314848 (test compound). […] BOCILLIN™ FL labeled PBP4 was imaged at λ=365 nm using a BioRad© Gel Doc EZ™ Imaging system and the gel was then subsequently stained with Bio-safe Coomassie Brilliant Blue stain (BioRad©, Hercules, CA, USA) to measure the amount of protein present in each reaction condition and analyzed using NIH-ImageJ software. […]

MRSA strain AH-1263 = experiment: Broth microdilution antibiotic potentiation; type: cell-based, Staphylococcus aureus; details: for MIC: Staphylococcus aureus, MRSA
Procedure: (§1) Broth Microdilution Method for Antibiotic Potentiation with MRSA Strains. Bacteria were cultured for 6 hours in CAMHB and sub-cultured to 5×10^5 CFU/mL in CAMHB. Subcultures were aliquoted (4 mL) into culture tubes and then inoculated with compound from 10 mM or 100 mM stock in DMSO to the desired concentration. […]. Bacteria treated with antibiotic alone served as the control. Samples from the secondary culture tubes were then aliquoted (200 μL) into the first row of wells of a 96-well microtiter plate. Rows 2-11 were filled (100 μL) with the remaining 4 mL of bacterial subculture containing the adjuvant. Row 12 was filled (100 μL) with uninoculated media. From row 1, 100 μL was transferred to row two and mixed 5-8 times before being transferred to row 3. This procedure was used to serial dilute the rest of the rows through 10. The microtiter plate was then covered in Press 'n Seal and incubated at 37° C.

MRSA strain AH-2204 = experiment: Broth microdilution antibiotic potentiation; type: cell-based, Staphylococcus aureus; details: Staphylococcus aureus, MRSA
Procedure: as §1

[2] = system: MRSA strain ATCC BAA-1556; experiment: Broth microdilution antibiotic potentiation; type: cell-based, Staphylococcus aureus; details: for MIC: Staphylococcus aureus
Procedure: as §1

MRSA strain 700699 = experiment: Broth microdilution antibiotic potentiation; type: cell-based; details: Staphylococcus aureus, read-out: Oxacillin MIC, no compound (—)
Procedure: as §1

MRSA strain BAA-1685 = experiment: Broth microdilution antibiotic potentiation; type: cell-based; details: Staphylococcus aureus, read-out: Oxacillin MIC, no compound (—)
Procedure: as §1

MRSA strain BAA-44 = experiment: Broth microdilution antibiotic potentiation; type: cell-based; details: Staphylococcus aureus, read-out: Oxacillin MIC, no compound (—)
Procedure: as §1

MRSA strain BAA-811 = experiment: Broth microdilution antibiotic potentiation; type: cell-based; details: Staphylococcus aureus, read-out: Oxacillin MIC, no compound (—)
Procedure: as §1

MRSA strain 43300 = experiment: Broth microdilution antibiotic potentiation; type: cell-based; details: Staphylococcus aureus, read-out: Oxacillin MIC, no compound (—)
Procedure: (§2) Broth Microdilution Method for Antibiotic Potentiation with MRSA Strains. Bacteria were cultured for 6 hours in CAMHB and sub-cultured to 5×10^5 CFU/mL in CAMHB. Subcultures were aliquoted (4 mL) into culture tubes and then inoculated with compound from 10 mM or 100 mM stock in DMSO to the desired concentration. […] Bacteria treated with antibiotic alone served as the control. Samples from the secondary culture tubes were then aliquoted (200 μL) into the first row of wells of a 96-well microtiter plate. Rows 2-11 were filled (100 μL) with the remaining 4 mL of bacterial subculture containing the adjuvant. Row 12 was filled (100 μL) with uninoculated media. From row 1, 100 μL was transferred to row two and mixed 5-8 times before being transferred to row 3. This procedure was used to serial dilute the rest of the rows through 10. The microtiter plate was then covered in Press 'n Seal and incubated at 37° C.

MRSA strain 700789 = experiment: Broth microdilution antibiotic potentiation; type: cell-based; details: Staphylococcus aureus, read-out: Oxacillin MIC, no compound (—)
Procedure: as §2

MRSA strain BAA-1770 = experiment: Broth microdilution antibiotic potentiation; type: cell-based, Staphylococcus aureus; details: Staphylococcus aureus, read-out: Oxacillin MIC, no compound (—)
Procedure: as §2

Chain of recombinant B. subtilis PBP4 (P40750 22-624): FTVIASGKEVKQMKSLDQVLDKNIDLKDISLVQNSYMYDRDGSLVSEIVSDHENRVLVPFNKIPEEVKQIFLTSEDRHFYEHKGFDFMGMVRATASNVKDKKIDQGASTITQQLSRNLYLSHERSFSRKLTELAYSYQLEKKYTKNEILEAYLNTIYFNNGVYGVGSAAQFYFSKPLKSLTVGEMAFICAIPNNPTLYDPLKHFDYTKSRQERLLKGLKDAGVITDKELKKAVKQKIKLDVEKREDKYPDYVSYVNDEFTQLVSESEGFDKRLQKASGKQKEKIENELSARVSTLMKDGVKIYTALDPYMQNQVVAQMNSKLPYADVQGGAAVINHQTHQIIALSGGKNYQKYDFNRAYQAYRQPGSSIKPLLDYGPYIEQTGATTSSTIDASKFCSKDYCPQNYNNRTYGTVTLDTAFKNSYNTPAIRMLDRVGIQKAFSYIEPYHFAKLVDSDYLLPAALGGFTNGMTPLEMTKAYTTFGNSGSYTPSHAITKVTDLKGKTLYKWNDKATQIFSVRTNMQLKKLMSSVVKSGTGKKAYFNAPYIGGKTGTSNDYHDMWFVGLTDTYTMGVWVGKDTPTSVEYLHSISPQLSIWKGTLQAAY

SMILES	Effect of preincubation on BOCILLIN FL binding to PBP4 (fluorescence polarization) [1]	Concentration of maximum BOCILLIN FL binding inhibition ([1]; dose-response 0-50 μM)	Effect of preincubation on BOCILLIN FL labeling of PBP4 (gel) (recombinant PBP4)	MIC (MRSA strain AH-1263; AH-1263, read-out: Ampicillin MIC, no compound (—))	MIC (MRSA strain AH-2204; AH-2204, read-out: Ampicillin MIC, no compound (—))	MIC ([2]; ATCC BAA-1556, read-out: Ampicillin MIC, no compound (—))	Oxacillin MIC, no compound (—) (MRSA strain AH-1263; AH-1263)	MIC (MRSA strain AH-1263; read-out: Oxacillin MIC, no compound (—), AH-1263)	MIC (MRSA strain AH-2204; read-out: Oxacillin MIC, no compound (—), AH-2204)	Oxacillin MIC, no compound (—) ([2]; ATCC BAA-1556)	MIC ([2]; read-out: Oxacillin MIC, no compound (—), ATCC BAA-1556)	MIC (MRSA strain 700699)	MIC (MRSA strain BAA-1685)	MIC (MRSA strain BAA-44)	MIC (MRSA strain BAA-811)	MIC (MRSA strain 43300)	MIC (MRSA strain 700789)	MIC (MRSA strain BAA-1770)
CC1(C)S[C@@H]2[C@H](NC(=O)[C@H](N)c3ccccc3)C(=O)N2[C@H]1C(=O)O [Ampicillin, ampicillin]	limited BOCILLIN™ FL binding	25 to 50 µM	reduced the protein's ability to bind the fluorescent substrate in a dose-dependent manner	16 µg/mL	2 µg/mL	16 µg/mL	–	–	–	–	–	–	–	–	–	–	–	–
Cc1onc(-c2ccccc2)c1C(=O)N[C@@H]1C(=O)N2[C@@H]1SC(C)(C)[C@@H]2C(=O)O [Oxacillin, oxacillin]	–	–	–	–	–	–	32 µg/mL	16 µg/mL	32 µg/mL	32 µg/mL and 16 µg/mL	32 µg/mL	16 µg/mL	64 µg/mL	16 µg/mL	256 µg/mL	512 µg/mL	256 µg/mL	512 µg/mL
